The source of these data is PubChem BioAssay AID330 (DTP/NCI, 2004).

Several values for one entry are separate records, joined by “and”; a condition that tells them apart may be missing. Equal entries are not always repeated. Inconclusive results and toxic doses are left out.

For this assay, the system named is P388 leukemia ip, CD2F1 mice, survival T/C. Put plainly: NCI In Vivo Anticancer Drug Screen. Data for tumor model P388 Leukemia (intraperitoneal) in CD2F1 (CDF1) mice. As to conditions: endpoint: median survival time, higher = longer survival. The procedure, abridged: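 Mice carrying the transplanted tumor received test compound or vehicle. Survival was recorded in each group, and the value is the treated-group measurement divided by that of the vehicle-treated control group.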

Where [1] appears, read: dose: 50.0 mg/kg/injection, schedule: Q01DX005 (ip), vehicle: Klucel (hydroxypropylcellulose) (HPC).
Setting [2] is: dose: 100.0 mg/kg/injection, schedule: Q01DX005 (ip), vehicle: Klucel (hydroxypropylcellulose) (HPC).
Setting [3] is: dose: 200.0 mg/kg/injection, schedule: Q01DX005 (ip), vehicle: Klucel (hydroxypropylcellulose) (HPC).
Where [4] appears, read: dose: 50.0 mg/kg/injection, schedule: Q01DX009 (ip), vehicle: saline with Tween-80.
[5] abbreviates: dose: 100.0 mg/kg/injection, schedule: Q01DX009 (ip), vehicle: saline with Tween-80.
[6] abbreviates: dose: 200.0 mg/kg/injection, schedule: Q01DX009 (ip), vehicle: saline with Tween-80.
Setting [7] is: dose: 100.0 mg/kg/injection, schedule: Q01DX001 (ip), vehicle: saline with Tween-80.
Setting [8] is: dose: 200.0 mg/kg/injection, schedule: Q01DX001 (ip), vehicle: saline with Tween-80.
Where [9] appears, read: dose: 12.5 mg/kg/injection, schedule: Q01DX005 (ip), vehicle: saline with Tween-80.
The mark [10] stands for this setting: dose: 25.0 mg/kg/injection, schedule: Q01DX005 (ip), vehicle: saline with Tween-80.
Setting [11] is: dose: 50.0 mg/kg/injection, schedule: Q01DX005 (ip), vehicle: saline with Tween-80.
Setting [12] is: dose: 12.5 mg/kg/injection, schedule: Q04DX002 (ip), vehicle: saline with Tween-80.
[13] abbreviates: dose: 25.0 mg/kg/injection, schedule: Q04DX002 (ip), vehicle: saline with Tween-80.
Where [14] appears, read: dose: 50.0 mg/kg/injection, schedule: Q04DX002 (ip), vehicle: saline with Tween-80.
The mark [15] stands for this setting: dose: 100.0 mg/kg/injection, schedule: Q04DX002 (ip), vehicle: saline with Tween-80.
[16] abbreviates: dose: 100.0 mg/kg/injection, schedule: Q01DX005 (ip), vehicle: saline with Tween-80.
Setting [17] is: dose: 200.0 mg/kg/injection, schedule: Q01DX005 (ip), vehicle: saline with Tween-80.

Regarding `CC1CCCC2=C1C(O)c1c(N)cccc1C2O` (stereo not drawn), the T/C under setting [1] was 96 % of control, the T/C under setting [2] was 101 % of control and the T/C under setting [3] is 94 % of control.

Regarding `CC1=CC2(CC(C)(C)C1)N(c1ccccc1)C(=O)C2(c1ccccc1)c1ccccc1` (stereo not drawn), the T/C is 91 % of control under setting [1], 91 % of control under setting [2] and 87 % of control under setting [3].

Regarding `CCc1cccc(CC)c1N1C(=O)CSCC1=O`, the T/C was 99 % of control (dose: 50.0 mg/kg/injection, schedule: Q01DX009 (ip), vehicle: saline); 93 % of control (dose: 100.0 mg/kg/injection, schedule: Q01DX009 (ip), vehicle: saline); 100 % of control (dose: 200.0 mg/kg/injection, schedule: Q01DX009 (ip), vehicle: saline).

For `Cc1c(COC(=O)NC(C)C)c(COC(=O)NC(C)C)c2c3ccccc3c3ccccc3n12`, the T/C was 180 % of control (dose: 12.5 mg/kg/injection, schedule: Q01DX009 (ip), vehicle: distilled water + Tween-80); 173 % of control (dose: 25.0 mg/kg/injection, schedule: Q01DX009 (ip), vehicle: distilled water + Tween-80); 110 % of control (dose: 50.0 mg/kg/injection, schedule: Q01DX009 (ip), vehicle: distilled water + Tween-80); 88 % of control (dose: 100.0 mg/kg/injection, schedule: Q01DX009 (ip), vehicle: distilled water + Tween-80).

With `C=C1C(=O)CCC1C#N` (stereo not drawn), the T/C (dose: 50.0 mg/kg/injection, schedule: Q04DX002 (ip), vehicle: suspension in saline) was 100 % of control; the T/C (dose: 100.0 mg/kg/injection, schedule: Q04DX002 (ip), vehicle: suspension in saline) was 100 % of control; the T/C (dose: 200.0 mg/kg/injection, schedule: Q04DX002 (ip), vehicle: suspension in saline) is 93 % of control.

With `CC(=O)Nc1ccc(OCCCN2CCOCC2)cc1`, the T/C was 102 % of control (dose: 100.0 mg/kg/injection, schedule: Q04DX002 (ip), vehicle: Klucel (hydroxypropylcellulose) (HPC)); 101 % of control (dose: 200.0 mg/kg/injection, schedule: Q04DX002 (ip), vehicle: Klucel (hydroxypropylcellulose) (HPC)); 95 % of control (dose: 400.0 mg/kg/injection, schedule: Q04DX002 (ip), vehicle: Klucel (hydroxypropylcellulose) (HPC)).

For the molecule `C/C=C(\C)c1cc(=O)c2c(C)cc3c(c2o1)C(=O)c1c(O)c(C2CC(C)(N(C)C)C(OC(C)=O)C(C)O2)cc(C2CC(N(C)C)C(O)C(C)O2)c1C3=O` (stereo not drawn), the T/C by setting is: (dose: 1.25 mg/kg/injection, schedule: Q01DX009 (ip), vehicle: saline) 100 % of control; (dose: 2.5 mg/kg/injection, schedule: Q01DX009 (ip), vehicle: saline) 117 % of control; (dose: 5.0 mg/kg/injection, schedule: Q01DX009 (ip), vehicle: saline) 89 % of control.

As to `COc1cccc(OC)c1N`, the T/C runs as follows: under setting [4], 108 % of control; under setting [5], 108 % of control; under setting [6], 92 % of control; (dose: 400.0 mg/kg/injection, schedule: Q01DX009 (ip), vehicle: saline with Tween-80) 90 % of control.

Regarding `C=CCN(CC=C)/N=N/c1nc[nH]c1C(N)=O`, the T/C reads like this: (dose: 50.0 mg/kg/injection, schedule: Q01DX001 (ip), vehicle: saline with Tween-80) 104 % of control; under setting [7], 90 % of control; under setting [8], 95 % of control.

Turning to `Nc1nc(Br)nc2c1ncn2C1CC(O)C(CO)O1` (stereo not drawn), the T/C reads like this: (dose: 1.5 mg/kg/injection, schedule: Q01DX005 (ip), vehicle: suspension in saline) 118 % of control; (dose: 3.0 mg/kg/injection, schedule: Q01DX005 (ip), vehicle: suspension in saline) 121 % of control; (dose: 15.0 mg/kg/injection, schedule: Q01DX005 (ip), vehicle: suspension in saline) 108 % of control; (dose: 15.0 mg/kg/injection, schedule: Q03HX009 (ip), vehicle: saline) 153 % of control and 155 % of control; (dose: 30.0 mg/kg/injection, schedule: Q03HX009 (ip), vehicle: saline with Tween-80) 164 % of control; (dose: 30.0 mg/kg/injection, schedule: Q03HX009 (ip), vehicle: saline) 167 % of control and 181 % of control. For the same molecule, the T/C was 117 % of control (dose: 60.0 mg/kg/injection, schedule: Q01DX005 (ip), vehicle: suspension in saline); 155 % of control (dose: 60.0 mg/kg/injection, schedule: Q03HX009 (ip), vehicle: saline with Tween-80); 165 % of control and 172 % of control (dose: 60.0 mg/kg/injection, schedule: Q03HX009 (ip), vehicle: saline); 122 % of control (dose: 120.0 mg/kg/injection, schedule: Q01DX005 (ip), vehicle: suspension in saline); 157 % of control (dose: 120.0 mg/kg/injection, schedule: Q03HX009 (ip), vehicle: saline with Tween-80); 172 % of control (dose: 120.0 mg/kg/injection, schedule: Q03HX009 (ip), vehicle: saline).

In the case of `c1c[nH]c(C23CC4CC(CC(C4)C2)C3)n1`, the T/C by setting is: under setting [9], 100 % of control; under setting [10], 100 % of control; under setting [11], 110 % of control and 94 % of control.

In the case of `CC(=Nc1c(C)noc1/C=C/c1ccccc1)NO`, the T/C runs as follows: under setting [12], 104 % of control; under setting [13], 97 % of control; under setting [14], 95 % of control; under setting [15], 87 % of control.

Regarding `CCOC(=O)C1=C(C)Oc2cc3c(cc2C1c1ccc(OC)cc1)OCO3` (stereo not drawn), the T/C by setting is: (dose: 60.0 mg/kg/injection, schedule: Q01DX005 (ip), vehicle: saline with Tween-80) 105 % of control; (dose: 120.0 mg/kg/injection, schedule: Q01DX005 (ip), vehicle: saline with Tween-80) 105 % of control; (dose: 240.0 mg/kg/injection, schedule: Q01DX005 (ip), vehicle: saline with Tween-80) 94 % of control.

Regarding `Nc1cc2c3c(cccc3c1)C(=O)N2`, the T/C runs as follows: under setting [7], 106 % of control; under setting [8], 106 % of control.

In the case of `O=C(NN1C(=O)CS(=O)(=O)C1c1ccc(F)cc1)c1ccncc1` (stereo not drawn), the T/C runs as follows: under setting [11], 98 % of control; under setting [16], 97 % of control; under setting [17], 88 % of control.

On to `O=C(O[Si](Cc1ccccc1)(Cc1ccccc1)Cc1ccccc1)N(CCCl)CCCl`, for which the T/C is, setting by setting: under setting [12], 111 % of control; under setting [13], 120 % of control; (dose: 25.0 mg/kg/injection, schedule: Q04DX003 (ip), vehicle: saline) 154 % of control; under setting [14], 159 % of control; (dose: 50.0 mg/kg/injection, schedule: Q04DX003 (ip), vehicle: saline) 214 % of control; under setting [15], 180 % of control.

Take `O=C1CC2(C(=O)O1)C1C(=O)OC(=O)C1C1c3ccccc3C=NN12` (stereo not drawn): the T/C is 98 % of control under setting [4], 93 % of control under setting [5] and 100 % of control under setting [6].

For `O=S(=O)(Cc1cccs1)c1ncc(Br)cn1`, the T/C by setting is: (dose: 12.5 mg/kg/injection, schedule: Q01DX005 (ip), vehicle: Klucel (hydroxypropylcellulose) (HPC)) 106 % of control; (dose: 25.0 mg/kg/injection, schedule: Q01DX005 (ip), vehicle: Klucel (hydroxypropylcellulose) (HPC)) 106 % of control; under setting [1], 111 % of control and 113 % of control; under setting [2], 117 % of control.

For the molecule `C[CH2][Sn]([Br])([CH2]C)[c]1c(CN(C)C)cccc1CN(C)C`, the T/C (dose: 3.12 mg/kg/injection, schedule: Q01DX009 (ip), vehicle: saline) is 99 % of control and 100 % of control; the T/C (dose: 6.25 mg/kg/injection, schedule: Q01DX009 (ip), vehicle: saline) was 104 % of control and 106 % of control and 95 % of control; the T/C (dose: 12.5 mg/kg/injection, schedule: Q01DX009 (ip), vehicle: saline) is 100 % of control and 95 % of control; the T/C (dose: 25.0 mg/kg/injection, schedule: Q01DX009 (ip), vehicle: saline) is 104 % of control and 95 % of control.

In the case of `CCCCCCCCCC(=O)C1C(c2ccccc2)CC(=O)C(CCCCCCCC)C1c1ccccc1` (stereo not drawn), the T/C runs as follows: under setting [9], 87 % of control; under setting [10], 98 % of control; under setting [11], 109 % of control and 93 % of control; under setting [16], 105 % of control; under setting [17], 115 % of control.
